Assay results published in patent US20180057507A1, “INHIBITORS OF DUAL LEUCINE ZIPPER (DLK) KINASE FOR THE TREATMENT OF DISEASE” (Board of Regents, The University of Texas System, priority 2016, published 2018).

Key:
human DLK [1] = molecular target: T1, human DLK (Homo sapiens, UniProt Q12852); assay: Phospho-cJun Cellular Assay; assay type: cell-based; set-up: expressed in transfected cells; settings: HEK293 cells stably transfected with Dox-inducible human DLK; p-cJun (Ser63); 5 h compound incubation
T1 sequence (Q12852 1-859): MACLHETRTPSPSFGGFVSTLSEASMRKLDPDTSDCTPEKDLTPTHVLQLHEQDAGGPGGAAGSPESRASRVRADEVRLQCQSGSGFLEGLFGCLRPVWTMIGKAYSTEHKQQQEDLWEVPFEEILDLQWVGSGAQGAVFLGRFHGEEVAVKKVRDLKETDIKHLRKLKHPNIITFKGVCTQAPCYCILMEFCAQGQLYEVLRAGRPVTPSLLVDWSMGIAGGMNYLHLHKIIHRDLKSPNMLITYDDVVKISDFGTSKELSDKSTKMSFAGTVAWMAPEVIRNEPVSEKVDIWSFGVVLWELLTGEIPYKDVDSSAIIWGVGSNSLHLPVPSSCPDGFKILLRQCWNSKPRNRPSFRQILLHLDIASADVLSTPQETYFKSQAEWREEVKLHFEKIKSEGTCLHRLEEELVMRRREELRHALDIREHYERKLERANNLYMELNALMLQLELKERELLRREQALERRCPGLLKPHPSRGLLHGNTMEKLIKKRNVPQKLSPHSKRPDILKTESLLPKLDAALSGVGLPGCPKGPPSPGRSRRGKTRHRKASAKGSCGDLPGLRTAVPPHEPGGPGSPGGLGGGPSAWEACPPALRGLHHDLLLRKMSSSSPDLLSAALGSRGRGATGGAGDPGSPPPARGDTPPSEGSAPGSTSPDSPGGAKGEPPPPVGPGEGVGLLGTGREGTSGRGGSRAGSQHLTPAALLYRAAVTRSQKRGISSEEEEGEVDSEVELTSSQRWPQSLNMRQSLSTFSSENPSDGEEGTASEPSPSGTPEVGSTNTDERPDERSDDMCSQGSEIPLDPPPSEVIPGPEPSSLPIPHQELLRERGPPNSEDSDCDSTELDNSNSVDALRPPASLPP
Summary of the method: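 HEK293 cells with doxycycline-induced human DLK (induced 20 h; uninduced cells as negative control) treated with compound for 5 h at 37 °C. Phospho-cJun (Ser63) measured in lysates with detection-antibody kit; IC50 from variable-slope dose-response fit.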

human DLK [2] = molecular target: T1, human DLK; assay: DLK Kd Determinations (KINOMEscan KdELECT, DiscoveRx); set-up: full length of human DLK (amino acids 1-859); host or cells: transiently transfected HEK293 cells; unpurified extract; settings: fusion protein of full length human DLK (amino acids 1-859) and NFkB DNA binding domain; qPCR readout; duplicate
Summary of the method: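 Competition binding of full-length human DLK (aa 1-859)-NFkB DBD fusion, DNA-tagged, from HEK293 extracts against an immobilized ligand; 1 h at room temperature, 0.9% DMSO. Bead-bound kinase was quantified by qPCR. Kd came from an 11-point 3-fold series (top 30,000 nM), in duplicate, with Hill slope fixed at −1.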

SMILES	IC50 (human DLK [1]) [nM]	Kd (human DLK [2]) [nM]
CC(C)c1nc(-c2cnc(N)c(C(F)(F)F)c2)cn1C1CC1 [Example 6, 5-[1-cyclopropyl-2-(propan-2-yl)-1H-imidazol-4-yl]-3-(trifluoromethyl)pyridin-2-amine]	3620	130
COCCN1C[C@@H]2[C@H](C1)[C@H]2n1cc(-c2cnc(N)c(C(F)(F)F)c2)nc1CC(F)(F)F [Example 121, 5-(1-((1R,5S,6s)-3-(2-methoxyethyl)-3-azabicyclo[3.1.0]hexan-6-yl)-2-(2,2,2-trifluoroethyl)-1H-imidazol-4-yl)-3-(trifluoromethyl)pyridin-2-amine]	1590	49
Nc1ncc(-c2cn([C@H]3[C@@H]4CN(CCF)C[C@@H]43)c(CC3CC3)n2)cc1C(F)(F)F [Example 77, 5-(2-(cyclopropylmethyl)-1-((1R,5S,6s)-3-(2-fluoroethyl)-3-azabicyclo[3.1.0]hexan-6-yl)-1H-imidazol-4-yl)-3-(trifluoromethyl)pyridin-2-amine]	1490	17
Nc1ncc(-c2cn3c(n2)C(C2CC2)N(C2COC2)CC3)cc1C(F)(F)F (stereo not drawn) [Example 4, 5-[8-cyclopropyl-7-(oxetan-3-yl)-5H,6H,7H,8H-imidazo[1,2-a]pyrazin-2-yl]-3-(trifluoromethyl)pyridin-2-amine]	14800	390
CC(C)c1nc(-c2cnc(N)c(OC(F)(F)F)c2)cn1[C@H]1C2CC(N3C[C@@H]4C[C@H]3CO4)C[C@@H]21 (stereo in doubt) [Example 134, 5-(1-((1S,5S)-3-((1S,4S)-2-oxa-5-azabicyclo[2.2.1]heptan-5-yl)bicyclo[3.1.0]hexan-6-yl)-2-isopropyl-1H-imidazol-4-yl)-3-(trifluoromethoxy)pyridin-2-amine]	1040	33
Nc1ncc(-c2cn([C@H]3[C@@H]4CN(C5CCOCC5)C[C@@H]43)c(C3CC3)n2)cc1C(F)(F)F [Example 74, 5-(2-cyclopropyl-1-((1R,5S,6s)-3-(tetrahydro-2H-pyran-4-yl)-3-azabicyclo[3.1.0]hexan-6-yl)-1H-imidazol-4-yl)-3-(trifluoromethyl)pyridin-2-amine]	1350	54
CC(C)c1nc(-c2cnc(N)c(C(F)(F)F)c2)cn1[C@H]1[C@@H]2CC(N3CCN(C)CC3)C[C@@H]21 (stereo partly drawn) [Example 132, 5-(2-isopropyl-1-(3-(4-methylpiperazin-1-yl)bicyclo[3.1.0]hexan-6-yl)-1H-imidazol-4-yl)-3-(trifluoromethyl)pyridin-2-amine]	909	22
CC(C)c1nc(-c2cnc(N)c(C(F)(F)F)c2)cn1[C@H]1C[C@@H](N2CCCOCC2)C1 [Example 45, 5-(1-((1s,3s)-3-(1,4-oxazepan-4-yl)cyclobutyl)-2-isopropyl-1H-imidazol-4-yl)-3-(trifluoromethyl)pyridin-2-amine]	6190	340
COCCN1C[C@@H]2[C@H](C1)[C@H]2n1cc(-c2cnc(N)c(C(F)(F)F)c2)nc1C1CC1 [Example 94, 5-(2-cyclopropyl-1-((1R,5S,6s)-3-(2-methoxyethyl)-3-azabicyclo[3.1.0]hexan-6-yl)-1H-imidazol-4-yl)-3-(trifluoromethyl)pyridin-2-amine]	1960	61
Nc1ncc(-c2cn([C@H]3[C@@H]4CN(CCF)C[C@@H]43)c(C3CC3)n2)cc1C(F)(F)F [Example 95, 5-(2-cyclopropyl-1-((1R,5S,6s)-3-(2-fluoroethyl)-3-azabicyclo[3.1.0]hexan-6-yl)-1H-imidazol-4-yl)-3-(trifluoromethyl)pyridin-2-amine]	1200	12.3
CC(C)c1nc(-c2cnc(N)c(OC(F)(F)F)c2)cn1[C@H]1[C@@H]2CC(N3CCCOCC3)C[C@@H]21 (single isomer, unassigned) [Example 20b, 5-(1-(3-(1,4-oxazepan-4-yl)bicyclo[3.1.0]hexan-6-yl)-2-isopropyl-1H-imidazol-4-yl)-3-(trifluoromethoxy)pyridin-2-amine]	1050	44
Nc1ncc(-c2cn([C@H]3[C@@H]4CN(C5CCOCC5)C[C@@H]43)c(C3CC3)n2)cc1OC(F)F [Example 105, 5-(2-cyclopropyl-1-((1R,5S,6s)-3-(tetrahydro-2H-pyran-4-yl)-3-azabicyclo[3.1.0]hexan-6-yl)-1H-imidazol-4-yl)-3-(difluoromethoxy)pyridin-2-amine]	1900	79
CC(C)c1nc(-c2cnc(N)c(C(F)(F)F)c2)cn1[C@H]1C[C@H](N2CCOCC2)C1 [Example 42, 5-(2-isopropyl-1-((1r,3r)-3-morpholinocyclobutyl)-1H-imidazol-4-yl)-3-(trifluoromethyl)pyridin-2-amine]	2230	180

Second part, the compound after the results:

IC50 (human DLK [1]) [nM]	Kd (human DLK [2]) [nM]	SMILES
747	30	CC(C)c1nc(-c2cnc(N)c(OC(F)(F)F)c2)cn1[C@H]1[C@@H]2CC(N3CCN(CCF)CC3)C[C@@H]21 (single isomer, unassigned) [Example 156a, 5-(1-(3-(4-(2-fluoroethyl)piperazin-1-yl)bicyclo[3.1.0]hexan-6-yl)-2-isopropyl-1H-imidazol-4-yl)-3-(trifluoromethoxy)pyridin-2-amine]
587	16	Nc1ncc(-c2cn([C@H]3[C@@H]4CC(N5CCCOCC5)C[C@@H]43)c(C3CC3)n2)cc1C(F)(F)F (single isomer, unassigned) [Example 141b, 5-(1-(3-(1,4-oxazepan-4-yl)bicyclo[3.1.0]hexan-6-yl)-2-cyclopropyl-1H-imidazol-4-yl)-3-(trifluoromethyl)pyridin-2-amine]
597	17	Nc1ncc(-c2cn([C@H]3[C@@H]4CC(N5CCN(CCF)CC5)C[C@@H]43)c(C3CC3)n2)cc1OC(F)(F)F (single isomer, unassigned) [Example 154b, 5-(2-cyclopropyl-1-(3-(4-(2-fluoroethyl)piperazin-1-yl)bicyclo[3.1.0]hexan-6-yl)-1H-imidazol-4-yl)-3-(trifluoromethoxy)pyridin-2-amine]
1190	23	CC(C)c1nc(-c2cnc(N)c(C(F)(F)F)c2)cn1[C@H]1[C@@H]2CC(N3CCN(CCF)CC3)C[C@@H]21 (single isomer, unassigned) [Example 155a, 5-(1-(3-(4-(2-fluoroethyl)piperazin-1-yl)bicyclo[3.1.0]hexan-6-yl)-2-isopropyl-1H-imidazol-4-yl)-3-(trifluoromethyl)pyridin-2-amine]
645	21	CC(C)c1nc(-c2cnc(N)c(OC(F)(F)F)c2)cn1[C@H]1[C@@H]2CC(N3CCN(C)CC3)C[C@@H]21 (single isomer, unassigned) [Example 133b, 5-(2-isopropyl-1-(3-(4-methylpiperazin-1-yl)bicyclo[3.1.0]hexan-6-yl)-1H-imidazol-4-yl)-3-(trifluoromethoxy)pyridin-2-amine]
454	19	CN1CCN(C2C[C@@H]3[C@H](C2)[C@H]3n2cc(-c3cnc(N)c(C(F)(F)F)c3)nc2CC2CC2)CC1 (single isomer, unassigned) [Example 161a, 5-(2-(cyclopropylmethyl)-1-(3-(4-methylpiperazin-1-yl)bicyclo[3.1.0]hexan-6-yl)-1H-imidazol-4-yl)-3-(trifluoromethyl)pyridin-2-amine]
809	9	Nc1ncc(-c2cn([C@H]3[C@@H]4CC(N5CCN(CCF)CC5)C[C@@H]43)c(C3CC3)n2)cc1C(F)(F)F (single isomer, unassigned) [Example 153b, 5-(2-cyclopropyl-1-(3-(4-(2-fluoroethyl)piperazin-1-yl)bicyclo[3.1.0]hexan-6-yl)-1H-imidazol-4-yl)-3-(trifluoromethyl)pyridin-2-amine]
769	5.6	Nc1ncc(-c2cn([C@H]3[C@@H]4CC(N5CCN(CCF)CC5)C[C@@H]43)c(CC3CC3)n2)cc1C(F)(F)F (single isomer, unassigned) [Example 162b, 5-(2-(cyclopropylmethyl)-1-(3-(4-(2-fluoroethyl)piperazin-1-yl)bicyclo[3.1.0]hexan-6-yl)-1H-imidazol-4-yl)-3-(trifluoromethyl)pyridin-2-amine]
